SMILES strings stand for the structures.

The data set is described as follows: Human HepG2 cell viability assay in 384 well format. It counts as toxicity, cell-based. Also noted: dose 125 nL, time 70.5 hour; cytotoxicity at 70.5 h: concentration not given beside the values. The conditions noted are these: HepG2 cells, read-out: Inhibition.
Regarding `Cn1cc(CN2CCCN(CCCc3ccccc3)CC2)cn1`, the cytotoxicity at 70.5 h was -15.4%.
For the molecule `Cc1ccsc1[C@@H]1CCN(C(=O)c2cc3ccccc3[nH]2)C[C@H]1O`, the cytotoxicity at 70.5 h came out at 0.623%.
In the case of `Cc1cc(N2CCOCC2)nc(N(C)CCO)c1C#N`, the cytotoxicity at 70.5 h is -5.45%.
For `OC(CN1CCN(Cc2cccc(F)c2)CC1)C1CC1` (stereo not given) the value was -11.3%.
For `COc1ccc(CN2C[C@@H]3OCCN(CCN4CCCC4)[C@@H]3C2)cc1` the value was 11.2%; for `O=C(O)C1CN(c2cccc(F)c2)CCO1` (stereo not given), 14.9%; for `Cc1ccc(S(=O)(=O)N2CC[C@@H](O)C2)c(F)c1`, -2.84%.
For `Cc1nc(CNC(=O)c2cc(COc3ccccc3)[nH]n2)n[nH]1` the value was -5.91%; for `COc1ccc(Br)cc1NCC(=O)NC(C)(C#N)C1CC1` (stereo not given), 2.31%; for `Cc1ccc(S(=O)(=O)N2CCN(CCC#N)CC2)s1`, 7.61%.
On to `CCc1c(C)nc2ccccc2c1N1CCC(C(=O)NC)CC1`, for which the cytotoxicity at 70.5 h is -5.91%.
The same measure for `Cc1noc2nc(C3CCN(Cc4ccncc4)CC3)cc(C(F)F)c12`: 31.7%; for `COc1ccc(Br)cc1CN(C)C(C)c1nc(C)no1` (stereo not given): -20.1%.
As for `CCc1nc(C2CCCN2CC(=O)Nc2nnc(C)s2)no1` (stereo not given), the cytotoxicity at 70.5 h is -13.4%.
The same measure for `CC(C)(C)c1cnc(CN2CCCS2(=O)=O)o1`: -1.12%.
For `CC(C)NC(=O)N1CCN2C(=O)OC[C@H]2C1` the value was 10.9%.
The same measure for `COCC1COCCC12CCN(C(=O)Cc1cccc(OC)c1)CC2` (stereo not given): -11.4%; for `CCSc1ccc(C(C)NC(=O)CNS(C)(=O)=O)cc1` (stereo not given): -7.13%; for `Oc1cc(-c2ccsc2)nc(C2CCN(Cc3ccncc3)CC2)n1`: -3.71%.
`COc1cccc(CN2CCOC(c3cnccn3)C2)c1F` (stereo not given): the cytotoxicity at 70.5 h is -8.48%.
On to `CC(C)Cc1cc(C(=O)NCC2CCN(c3ccccc3F)C2)on1` (stereo not given), for which the cytotoxicity at 70.5 h is -13.6%.
The same measure for `CN(CCc1noc(C2CC2)n1)C(=O)CN1C(=O)COc2ccccc21`: -4.64%; for `CC(C)NC(=O)c1ccc2nnc(C3CCN(C(=O)NC(C)C)C3)n2c1` (stereo not given): -0.652%.
For `Cc1ncsc1CN1CC[C@H]2OCC[C@@]2(C(=O)N2CCOCC2)C1` the value was -4.06%; for `Cc1cccc(CN2C[C@H](OCc3csc(C)n3)[C@H]3COC[C@H]32)n1`, -3.75%.
The same measure for `O=C1CO[C@@H]2CN(CC3CCOC3)C[C@H]2N1Cc1cccc(F)c1` (stereo not given in full): -6.08%; for `Cn1ccc(C(=O)NCCOc2ccc3c(c2)OCO3)cc1=O`: -6.82%.
Turning to `COCCN(Cc1coc(-c2cccc(Cl)c2)n1)C1CC1`, the cytotoxicity at 70.5 h was -4.43%.
For `Cc1cnccc1N1CCN(c2nccc(CCC(F)(F)F)n2)CC1`, the cytotoxicity at 70.5 h was -9.06%.
For the molecule `O=C(c1coc(CN2CCN(c3ccccc3F)CC2)n1)N1CCCC1`, the cytotoxicity at 70.5 h worked out at 5.68%.
The same measure for `Cc1ccn2ncc(C(=O)N3CCCC(n4ccnc4C)C3)c2n1` (stereo not given): -2.96%; for `Cc1cc(C)c(CNC(=O)N2CCN(c3nccs3)CC2)c(=O)[nH]1`: 14.3%; for `CN(Cc1cnn(C)c1)C(=O)NC1CCN(Cc2ccccn2)CC1`: -11.3%.
For `Cc1ncsc1C(=O)N(C)CCc1ccncc1` the value was -2.51%.
For `CSC(C)C(=O)N(C)C1CCN(c2ccc(Cl)cc2)CC1` (stereo not given) the value was 2.45%; for `CCc1noc(CN2CCN(C(=O)c3ccccn3)CC2)n1`, -7.01%; for `CC(C)C(C(=O)N1CCCN(c2nccs2)CC1)n1cncn1` (stereo not given), 1.24%.
As to `Cc1csc(CNC(=O)NCC(O)c2ccc(F)cc2F)n1` (stereo not given), the cytotoxicity at 70.5 h was 5.96%.
On to `Cc1cnn(CC(C)NCc2nc(-c3cccnc3)no2)c1` (stereo not given), for which the cytotoxicity at 70.5 h came out at 3.38%.
For `COc1cc(C(=O)N2CCCC(CNS(C)(=O)=O)C2)cc(OC)c1C` (stereo not given) the value was -13.5%; for `Cc1cccc2sc(NC(=O)CN3CCC(C)CC3)nc12`, -7.07%.
With `CC(C)N1Cc2c(C(=O)N3CCOCC3)nn(C)c2C1`, the cytotoxicity at 70.5 h was -13.7%.
The same measure for `CO[C@@H](C(=O)NC1CCOCC1)c1ccccc1`: 9.39%; for `O=C(CCn1cncn1)NCCOc1cccc(Cl)c1`: -2.18%.
The same measure for `CCc1ccc(-c2noc(Cn3nc(C(N)=O)ccc3=O)n2)cc1`: -6.4%.
The same measure for `COCC(=O)Nc1cc(S(=O)(=O)C(F)(F)F)ccc1OC`: 2.14%; for `O=C(O)c1cncc(Cc2ccc(F)cc2)c1`: -7.6%.
Turning to `Cc1nc(S(=O)(=O)N2CCc3[nH]nc(CCC(C)C)c3C2)cn1C`, the cytotoxicity at 70.5 h was -6.22%.
The same measure for `CCCN1C(=O)c2ccccc2C1OC` (stereo not given): -6.48%.
The same measure for `CC(O)C1CCN(Cc2nccn2CC(F)(F)F)CC1` (stereo not given): -7.97%.
As for `CC(C)c1cccc(CSc2nnc(CN3CCCC3=O)o2)n1`, the cytotoxicity at 70.5 h is -8%.
For `Cn1ccnc1CNc1ccc(F)c(N2CCCS2(=O)=O)c1` the value was 0.314%.
The same measure for `COCc1cccc(S(=O)(=O)Nc2ncc(C)s2)c1`: -12.2%.
For `O=C(c1cccs1)N1CCC(O)(CN2CCc3ccccc3C2)C1` (stereo not given) the value was -2.95%; for `Cc1nc(C)n(CC2CCCN(CCC(=O)N3CCCCC3)C2)n1` (stereo not given), -1.55%; for `c1cncc(CNc2ccc3nc(C4CCNCC4)nn3c2)c1`, -4.24%.
For `Cc1ccc(S(=O)(=O)NCC(C)C#N)cc1Br` (stereo not given), the cytotoxicity at 70.5 h is -4.59%.
For `COCCC1(CO)CCCN(C(=O)c2cccnc2O)C1` (stereo not given) the value was -3.89%; for `CN(C)S(=O)(=O)N1CCC[C@]2(C[C@@H](Oc3ccccn3)CO2)C1`, -17.2%; for `CCN(CC1CCCO1)C(=O)Nc1cc(C(=O)OC)ccc1F` (stereo not given), -22.1%.
For the molecule `O=C(NC1CCC1)C1=NOC2(CCN(Cc3ccco3)C2)C1` (stereo not given), the cytotoxicity at 70.5 h stood at 6.54%.
For `CN1CCOC(CNCc2nc(-c3ccco3)no2)C1` (stereo not given) the value was 2.27%.
The same measure for `Cc1nccn1-c1ccc(CNS(=O)(=O)N2CCC(C)CC2)cn1`: 25.9%; for `Cc1ccc(C(=O)Nc2c(C(=O)N(C)C)nn(C)c2C)cc1C`: -4.41%; for `CN(CC(O)C(F)(F)F)C(=O)Nc1cccc(Cn2cccn2)c1` (stereo not given): -6.9%.
For `CCc1cnc(NCCS(=O)(=O)CC(C)C)nc1` the value was 19.7%; for `O=C(Nc1cnn(CCN2CCOCC2)c1)c1cc(F)ccc1F`, -2.44%.
Regarding `COC(=O)[C@H]1CN(C(=O)NC(C)C)CCN1C(=O)C1CCCCC1`, the cytotoxicity at 70.5 h came out at 10.7%.
`COCCN1C2(CCN(CC3CC3)C2)c2ccccc2S1(=O)=O` (stereo not given): the cytotoxicity at 70.5 h was found to be 4.8%.
The same measure for `COC(=O)CN1CCN(c2cccc(C)c2)CC1`: -2.66%; for `Cc1noc(C)c1CN(C)Cc1csc(-c2ccc(F)cc2)n1`: -8.1%; for `COCCN1CCC2(CCCN(c3ncccn3)C2)C1` (stereo not given): -12.6%.
The same measure for `COc1ncc(CN2CCOC(Cc3cccc4ccccc34)C2)cn1` (stereo not given): 20%; for `O=C(COCCc1ccccc1)N1CCCC(n2cccn2)C1` (stereo not given): -6.79%; for `O=C(Nc1ccccc1CCc1ccccn1)NC1CCOCC1`: 0.573%.
The same measure for `CCN1CC(C(=O)NCCOc2ccc3c(c2)OCO3)CC1=O` (stereo not given): -1.5%; for `Cc1cccc(C(C(=O)NCCn2cccc2)N(C)C)c1` (stereo not given): -12.1%; for `NC(CC1CCCCC1)c1ccccc1` (stereo not given): 5.79%.
As for `CCc1[nH]ncc1C(=O)N1CCCN(Cc2nccn2C(C)C)CC1`, the cytotoxicity at 70.5 h was found to be 0.199%.
For `O=C1CC[C@H]2[C@H](CCN2C(=O)C2CCOCC2)N1Cc1ccncc1` the value was -15.6%; for `NC(=O)c1csc(N2CCN(Cc3cccc4nsnc34)CC2)n1`, 15.7%.
For `COc1ccc(CNC(=O)NC2CCN(c3ccccc3)C2=O)cc1` (stereo not given) the value was -4.11%.
For `CCC1=N[C@@]2(CC[C@@H]3CN(C(=O)NCC(C)C)C[C@@H]32)C(=O)N1CC1CC1` the value was -2.4%.
For the molecule `Cc1nn(C)cc1CN1CCC(c2ncc(Cl)cc2S(C)(=O)=O)CC1`, the cytotoxicity at 70.5 h is -6.84%.
The same measure for `O=C(CCCc1ccccc1)N1CCCC(n2cncn2)C1` (stereo not given): -4.48%; for `COCC(=O)N1CCCC2(CCN(CCN3CCCC3)CC2)C1`: -1.48%; for `CCS(=O)(=O)N1CCOC2(CCCN(c3ncc(F)cn3)C2)C1` (stereo not given): -4.67%.
In the case of `O=C(COc1ccc2c(c1)CCC2)N1CCCC(n2cccn2)C1` (stereo not given), the cytotoxicity at 70.5 h stood at 15.3%.
The same measure for `Cc1ccc(NC2CCN(C(=O)COc3cccnc3)CC2)nn1`: 22%; for `CC(C)CN1CC2(CCN(C(=O)c3cnccn3)CC2)CC1=O`: -15%; for `CCc1cc(C(=O)N[C@H]2CN(CCS(C)(=O)=O)C[C@@H]2C2CC2)[nH]n1`: -13.2%.
For `CS(=O)(=O)Nc1ccc(-n2c(CCCO)nc3ccccc32)cn1` the value was 0.667%.
The same measure for `CCc1n[nH]c(C(=O)NCCn2ccnc2C)c1C`: -5.75%.
With `COCCS(=O)(=O)N(Cc1cscn1)c1ccccc1`, the cytotoxicity at 70.5 h was -5.03%.
For `CSCCC(NC(=O)c1ccco1)C(=O)N(C)Cc1ccsc1` (stereo not given) the value was -4.71%; for `CCn1cc(-c2cc(C(=O)N3CCOCC3)c3cc(Cl)ccc3n2)cn1`, -5.95%; for `O=c1oc(-c2cccs2)nn1CC(O)c1ccccc1` (stereo not given), -13.3%.
`Cc1nnc(NC(=O)CCc2c(C)nn3cnnc3c2C)s1`: the cytotoxicity at 70.5 h is -7.03%.
The same measure for `Cc1nc(CN2CCN(C(=O)c3sccc3C)CC2)cs1`: -11.5%; for `Cn1cc(N2C[C@@H]3CN(CC4CCOCC4)C[C@@H]3C2=O)cn1`: 2.05%.

The values above are taken from ChEMBL document CHEMBL3507680, “University of Dundee, Gates Library screen for HepG2 cell viability”.
